In US8232402B2, “Quinolinone farnesyl transferase inhibitors for the treatment of synucleinopathies and other indications” (Link Medicine Corporation, priority 2008, dated 2012):

Tests used:
[1] = tested on: farnesylated UCH-L1; assay: Farnesylated UCH-L1 in cortex membrane fraction of α-synuclein transgenic mice (quantitative Western blot); format: in vivo; conditions: normalized to actin, 45 mg/kg twice a day, 30 days
Description: Farnesyl transferase inhibitors Zarnestra and OSI-754 were administered to mice of the α-synuclein transgenic line described in Masliah et al. (Masliah et al. “Dopaminergic loss and inclusion body formation in alpha-synuclein mice: implications for neurodegenerative disorders” Science 287(5456): 1265-69, 2000; incorporated herein by reference). Animals from this line have α-synuclein neuronal inclusions in the cortex, hippocampus, and the olfactory bulb (Masliah et al. “Dopaminergic loss and inclusion body formation in alpha-synuclein mice: implications for neurodegenerative disorders” Science 287(5456): 1265-69, 2000; incorporated herein by reference). […]
Total α-synuclein levels were analyzed by a sandwich ELISA assay similar to one previously described (El-Agnaf et al. “Detection of oligomeric forms of alpha-synuclein protein in human plasma as a potential biomarker for Parkinson's disease” FASEB J. 20(3):419-25, 2006; incorporated herein by reference). […] Transgenic mice that received Zarnestra had lower α-synuclein protein levels than vehicle-treated transgenic mice and nearly the same as that detected in the non-transgenic group in both the cytoplasmic (FIG. 10) and membrane fractions (FIG. 11), which represent soluble and insoluble α-synuclein, respectively. […] The amount of UCH-L1 was determined by quantitative Western Blot. […]

[2] = tested on: α-synuclein inclusions; assay: Inclusion histology in α-synuclein transgenic mice (α-synuclein and ubiquitin immunostaining, Campbell-Switzer); format: in vivo; conditions: for α-synuclein-positive cells per mm^2 versus vehicle: cortex and hippocampus
Description: (§1) Farnesyl transferase inhibitors Zarnestra and OSI-754 were administered to mice of the α-synuclein transgenic line described in Masliah et al. (Masliah et al. “Dopaminergic loss and inclusion body formation in alpha-synuclein mice: implications for neurodegenerative disorders” Science 287(5456): 1265-69, 2000; incorporated herein by reference). Animals from this line have α-synuclein neuronal inclusions in the cortex, hippocampus, and the olfactory bulb (Masliah et al. “Dopaminergic loss and inclusion body formation in alpha-synuclein mice: implications for neurodegenerative disorders” Science 287(5456): 1265-69, 2000; incorporated herein by reference). Transgenic mice were orally administered either FTI in 20% cyclodextrin solution or the same volume of vehicle alone twice a day for 30 or 90 days. In some cases, non-transgenic mice also received vehicle twice a day for 30 to 90 days. At the end of treatment, mice were sacrificed, and the brains removed and hemisected. One hemisphere of each was fixed in 4% paraformaldehyde/PBS (pH 7.4), cryoperserved, then sectioned for histology. The other hemisphere was subdivided into four brain regions, including the cortex and hippocampus, that were homogenized and processed into cytoplasmic and membrane fractions.
Formation of α-synuclein inclusions in the cortex and hippocampus was probed by immunostaining with an antibody for human α-synuclein. Cells positive for human α-synuclein were quantified. […] These regions were also analyzed for ubiquitin-immunoreactive inclusions and by the Campbell Switzer method of silver staining. Ubiquitin is known to be a constituent of Lewy bodies and in the α-synculein inclusions found in the transgenic mouse line used in the study (Masliah et al. “Dopaminergic loss and inclusion body formation in alpha-synuclein mice: implications for neurodegenerative disorders” Science 287(5456): 1265-69, 2000; incorporated herein by reference). […] Campbell-Switzer staining is a general marker of Lewy Body type inclusions (Uchihara et al. “Silver stainings distinguish Lewy bodies and glial cytoplasmic inclusions: comparison between Gallyas-Braak and Campbell-Switzer methods” Acta Neuropathol (Berl) 110(3):255-60, 2005; incorporated herein by reference).
Formation of α-synuclein inclusions in the cortex and hippocampus was probed by immunostaining with an antibody for human α-synuclein. Cells positive for human α-synuclein were quantified.

[3] = tested on: α-synuclein; assay: α-synuclein sandwich ELISA in brain fractions of α-synuclein transgenic mice; format: in vivo
Description: as §1
Total α-synuclein levels were analyzed by a sandwich ELISA assay similar to one previously described (El-Agnaf et al. “Detection of oligomeric forms of alpha-synuclein protein in human plasma as a potential biomarker for Parkinson's disease” FASEB J. 20(3):419-25, 2006; incorporated herein by reference). In the cortex of vehicle treated animals, α-synuclein protein levels in the α-synuclein transgenic line are greater than in non-transgenic mice in both cytoplasmic (FIG. 10) and membrane fractions (FIG. 11). Transgenic mice that received Zarnestra had lower α-synuclein protein levels than vehicle-treated transgenic mice and nearly the same as that detected in the non-transgenic group in both the cytoplasmic (FIG. 10) and membrane fractions (FIG. 11), which represent soluble and insoluble α-synuclein, respectively. Farnesylated UCH-L1 in the cortex is contained in the membrane fraction. The amount of UCH-L1 was determined by quantitative Western Blot.

[4] = molecular target: recombinant farnesyl transferase (FTase) (Homo sapiens, UniProt P49354+P49356); assay: In vitro farnesyl transferase assay (fluorescent dansyl-pentapeptide); format: biochemical; conditions: in vitro and in vivo
Source text: These neuroblastoma cells can be differentiated into dopaminergic cells and are useful for assessing the pathogenesis of Parkinson's disease (PD). […] Similar findings were found in vivo. […] IC50 values for various inventive compounds have been determined in in vitro assays using recombinant farnesyl transferase and a dansylated pentapeptide substrate. For a description of the assay used, see Cassidy et al., Methods Enzymol. 250:30-43, 1995, which is incorporated herein by reference. […] The compounds were also found to inhibit the farnesylation of Ras in cells treated with the test compound. IC50 values in vivo range from about 0.5 nM to about 25 μM.
Compounds were analyzed for inhibition of farnesyl transferase (FTase) activity using an established fluorescent peptide-based assay (Pompliano et al 1992 J. Am. Chem. Soc. 114:7945; U.S. Pat. No. 5,525,479, issued Jun. 11, 1996; each of which is incorporated herein by reference). In summary, a dansyl-pentapeptide (dGCVLS) (SEQ ID NO: 8) was incubated at […] with […] farnesyl pyrophosphate (FPP) and 25-50 nM FTase in 50 mM Tris-HC1/12 mM MgC12/[…]/6 mM DTT/0.2% octyl-D- -glucopyranoside/pH 7.0 at room temperature while the increase in fluorescence of the peptide at Ex =340 nm , Em =485 nm upon farnesyl addition was monitored continuously by a spectrofluorometer. […]

[5] = tested on: Neuronal Specific Nuclear Protein (NeuN); assay: NeuN staining of cortex and hippocampus of α-synuclein transgenic mice; format: in vivo; conditions: 90 days
[6] = α-synuclein transgenic mice, summary, dose not given

C#Cc1cccc(-c2cc(=O)n(C)c3ccc(C(O)(c4ccc(Cl)cc4)c4cncn4C)cc23)c1 (stereo not drawn) [LNK-754]
amount of farnesylated UCH-L1 [1]: decreased the amount of farnesylated UCH-L1 | inclusions versus vehicle ([2]; 9 mg/kg twice a day, 90 days): fewer inclusions | inclusions versus vehicle ([2]; 45 mg/kg twice a day, 90 days): fewer inclusions | α-synuclein-positive cells per mm^2 versus vehicle ([2]; 9 mg/kg twice a day, 90 days): fewer α-synuclein-positive cells per mm^2 | α-synuclein-positive cells per mm^2 versus vehicle ([2]; 45 mg/kg twice a day, 90 days): fewer α-synuclein-positive cells per mm^2 | inclusions versus vehicle [2, 6]: fewer inclusions | levels of α-synuclein protein (ELISA) ([3]; cortex and hippocampus, 9 mg/kg twice a day, 90 days): decreased levels of α-synuclein protein | levels of α-synuclein protein (ELISA) ([3]; cortex and hippocampus, 45 mg/kg twice a day, 90 days): decreased levels of α-synuclein protein | levels of α-synuclein protein (ELISA) ([3]; cortex, cytoplasmic and membrane fractions, 45 mg/kg twice a day, 30 days): decreased levels of α-synuclein protein | levels of α-synuclein in the cortex [3, 6]: decrease levels of α-synuclein in the cortex | inhibition of the farnesylation of proteins and/or peptides [4]: inhibit the farnesylation of proteins and/or peptides in vitro and in vivo | neuronal morphology or density (NeuN staining) [5]: did not affect neuronal morphology or density
